Source: patent US20260215425A1, “NITRIFICATION INHIBITORS” (The University of Melbourne, priority 2022, published 2026)

Columns and labels:
N. europaea = test: standard nitrification inhibition assay (NO2- production, Griess); assay type: cell-based, Nitrosomonas europaea; settings: [NH4+]=3 mM, [inhibitor]=0.3 mM (10 mol %), pH 7.5, 30° C., 60 min
Description: (§1) Cells of N. multiformis and N. europaea were cultivated to the mid-exponential growth phase (OD600=0.1, [NO2^−] approximately 800 μM) and harvested by filtration onto 0.2 μm membrane filters (Mixed Cellulose Ester (MCE), Sigma Aldrich). The cells were washed with 2×100 mL of 0.1 M sodium phosphate buffer (NaPB), containing 0.2 mM MgSO4 at pH 7.5. The cells were washed from the filter paper by transferring it to a sterile 50 mL tube and resuspending in NaPB (15 mL), followed by 5 s of vortexing (Ratek, Australia) and 3 s of sonication (Vevor, Australia). […] Experiments were performed in triplicate.
(§2) In a deep 96-well plate (2 mL capacity), 980 μL of the bacterial inoculum (OD600=0.03) was added to the inhibitor (10 μL, 30 mmol L^−1 in Milli-Q water), the solutions were mixed thoroughly and pre-incubated in the dark for 5 minutes at 100 rpm and 30° C. (NH4)2SO4 (10 μL, 150 mM, from a prepared sterile solution containing 19.8 g L^−1 (NH4)2SO4 in Milli-Q water) was then added using a multi-channel pipette. The plate was covered with a with an O2 permeable membrane to ensure aeration (Breathe-Easy® sealing membrane, Sigma Aldrich) and incubated in a temperature-regulated rotary incubator (Ratek, Australia) in the dark for 60 minutes at 30° C. and 100 rpm. An aliquot of the reaction solution ([…]) was transferred to a 96-well spectrophotometric plate to which 50 µL of Griess reagent was added. The colour was allowed to develop for 15 minutes at room temperature, and the absorbance was measured at 540 nm. Each assay was accompanied by control treatments to determine the 0% and 100% NO2 signal. The percentage inhibition was calculated according to eqn. 1 from the NO2 production of the cells in NaPB (i) without additive (‘untreated cells’: 0% signal), (ii) with [NH4^+]=3 mM (‘uninhibited’ cells: 100% signal) and (iii) with [NH4^+]=3 mM and [inhibitor]=0.3 mM and 0.03 mM (10 mol % and 1 mol % of [NH4^+], ‘inhibited cells’). Experiments were performed in triplicate.

N. multiformis = test: as above; assay type: cell-based, Nitrosospira multiformis; settings: [NH4+]=3 mM, [inhibitor]=0.3 mM (10 mol %), pH 7.5, 30° C., 60 min
Description: as §1, §2

soils B-E = test: soil incubation, N2O production in soils B-E
Description: Soil incubations were performed in three replicates. Each sample consisted of 6 g of sieved soil (2 mm). The soil was air-dried after collection and pre-incubated prior to the experiment for seven days at 50% water holding capacity (WHC). The soil was transferred to a gas chromatography vial (22 mL volume, clear glass, Macherey-Nagel, Germany) and compacted densely to allow 5.5-6.2 cm headspace. The soil in the vials was incubated for a total of 21 days at a constant temperature of 21° C. with an open lid to ensure gas circulation. The control incubations contained ‘untreated’ soil (deionized H2O only) and ‘fertiliser only’ soil ((NH4)2SO4; 50 mg kg^−1 soil) and accompanied each measurement. (NH4)2SO4 was applied as an aqueous solution ([…]) and introduced on the soil surface to mimic field conditions. Three inhibitor solutions were prepared from DMP and 4-MPT at concentrations of 0.5 mol %, 2.5 mol % and 5 mol % of applied fertiliser-N and applied on the soil surface. The soils reached 60% WHC after the treatments had been applied and were kept at that moisture level by periodically adding deionized water to compensate for evaporation losses. At the day of measurement (day 1, 3, 5, 7, 14 and 21 after fertilization) the vials were closed gas-tight with a rubber septum and aluminium lid and opened again after each measurement. The N2O emission was analysed using a gas chromatograph equipped with an electron capture detector and flame ionization detector (GC-ECD/FID; Clarus 580, Perkin Elmer). A linear regression slope was used to calculate N2O—N production rates, F, according to eqn. 5:
where ΔC/Δt represents the change of the N2O concentration over the time interval t in ppbv, V represents the headspace volume in L, M represents the molar mass of N in N2O, m represents the amount of soil in g dry weight, Vm represents the molar volume of ideal gases (22.414 L mol^−1) at 0° C. and 101.325 kPa, corrected for the gas sampler using T0 (273.15 K) and Ta (air temperature in K).

C#CCCn1cc(CCC)nn1 [Compound 2]
% Inhibition NE (N. europaea): 21 ± 2%
% Inhibition NM (N. multiformis): 40 ± 1%

C#CCOC(=O)Cn1cc(CCC)nn1 [Compound 3]
% Inhibition NE (N. europaea): 49 ± 2%
% Inhibition NM (N. multiformis): 47 ± 2%

C#CCNC(=O)Cn1cc(CCC)nn1 [Compound 4]
% Inhibition NE (N. europaea): 7.1 ± 1%

CCCCn1cc(CCC)nn1 [Compound N013]
% Inhibition NE (N. europaea): 60 ± 1%
% Inhibition NM (N. multiformis): 54 ± 2%

Cc1c[nH]nc1C [DMP, 3,4-dimethylpyrazole, reference compound]
N2O production (soils B-E; Soil B, 0.5 mol %, Day 1): 0.318 ± 0.030 μg g^−1 soil h^−1
N2O production (soils B-E; Soil B, 0.5 mol %, Day 3): 0.189 ± 0.006 μg g^−1 soil h^−1
N2O production (soils B-E; Soil B, 0.5 mol %, Day 5): 0.151 ± 0.015 μg g^−1 soil h^−1
N2O production (soils B-E; Soil B, 0.5 mol %, Day 7): 0.086 ± 0.043 μg g^−1 soil h^−1
N2O production (soils B-E; Soil B, 0.5 mol %, Day 14): 0.136 ± 0.006 μg g^−1 soil h^−1
N2O production (soils B-E; Soil B, 0.5 mol %, Day 21): 0.019 ± 0.019 μg g^−1 soil h^−1
N2O production (soils B-E; Soil B, 2.5 mol %, Day 1): 0.224 ± 0.013 μg g^−1 soil h^−1
N2O production (soils B-E; Soil B, 2.5 mol %, Day 3): 0.124 ± 0.008 μg g^−1 soil h^−1
N2O production (soils B-E; Soil B, 2.5 mol %, Day 5): 0.060 ± 0.030 μg g^−1 soil h^−1
N2O production (soils B-E; Soil B, 2.5 mol %, Day 7): 0.045 ± 0.023 μg g^−1 soil h^−1
N2O production (soils B-E; Soil B, 2.5 mol %, Day 14): 0.113 ± 0.006 μg g^−1 soil h^−1
N2O production (soils B-E; Soil B, 2.5 mol %, Day 21): 0.127 ± 0.000 μg g^−1 soil h^−1
N2O production (soils B-E; Soil B, 5 mol %, Day 1): 0.209 ± 0.054 μg g^−1 soil h^−1
N2O production (soils B-E; Soil B, 5 mol %, Day 3): 0.067 ± 0.017 μg g^−1 soil h^−1
N2O production (soils B-E; Soil B, 5 mol %, Day 5): 0.058 ± 0.014 μg g^−1 soil h^−1
N2O production (soils B-E; Soil B, 5 mol %, Day 7): 0.020 ± 0.010 μg g^−1 soil h^−1
N2O production (soils B-E; Soil B, 5 mol %, Day 14): 0.052 ± 0.003 μg g^−1 soil h^−1
N2O production (soils B-E; Soil B, 5 mol %, Day 21): 0.037 ± 0.019 μg g^−1 soil h^−1
N2O production (soils B-E; Soil C, 0.5 mol %, Day 1): 0.283 ± 0.008 μg g^−1 soil h^−1
N2O production (soils B-E; Soil C, 0.5 mol %, Day 3): 0.183 ± 0.003 μg g^−1 soil h^−1
N2O production (soils B-E; Soil C, 0.5 mol %, Day 5): 0.081 ± 0.041 μg g^−1 soil h^−1
N2O production (soils B-E; Soil C, 0.5 mol %, Day 7): 0.162 ± 0.037 μg g^−1 soil h^−1
N2O production (soils B-E; Soil C, 0.5 mol %, Day 14): 0.105 ± 0.007 μg g^−1 soil h^−1
N2O production (soils B-E; Soil C, 0.5 mol %, Day 21): 0.101 ± 0.011 μg g^−1 soil h^−1
N2O production (soils B-E; Soil C, 2.5 mol %, Day 1): 0.276 ± 0.006 μg g^−1 soil h^−1
N2O production (soils B-E; Soil C, 2.5 mol %, Day 3): 0.161 ± 0.006 μg g^−1 soil h^−1
N2O production (soils B-E; Soil C, 2.5 mol %, Day 5): 0.133 ± 0.006 μg g^−1 soil h^−1
N2O production (soils B-E; Soil C, 2.5 mol %, Day 7): 0.113 ± 0.005 μg g^−1 soil h^−1
N2O production (soils B-E; Soil C, 2.5 mol %, Day 14): 0.086 ± 0.006 μg g^−1 soil h^−1
N2O production (soils B-E; Soil C, 2.5 mol %, Day 21): 0.089 ± 0.005 μg g^−1 soil h^−1
N2O production (soils B-E; Soil C, 5 mol %, Day 1): 0.228 ± 0.017 μg g^−1 soil h^−1
N2O production (soils B-E; Soil C, 5 mol %, Day 3): 0.125 ± 0.006 μg g^−1 soil h^−1
N2O production (soils B-E; Soil C, 5 mol %, Day 5): 0.099 ± 0.008 μg g^−1 soil h^−1
N2O production (soils B-E; Soil C, 5 mol %, Day 7): 0.098 ± 0.010 μg g^−1 soil h^−1
N2O production (soils B-E; Soil C, 5 mol %, Day 14): 0.085 ± 0.009 μg g^−1 soil h^−1
N2O production (soils B-E; Soil C, 5 mol %, Day 21): 0.095 ± 0.000 μg g^−1 soil h^−1
N2O production (soils B-E; Soil D, 0.5 mol %, Day 1): 0.131 ± 0.001 μg g^−1 soil h^−1
N2O production (soils B-E; Soil D, 0.5 mol %, Day 3): 0.133 ± 0.003 μg g^−1 soil h^−1
N2O production (soils B-E; Soil D, 0.5 mol %, Day 5): 0.063 ± 0.003 μg g^−1 soil h^−1
N2O production (soils B-E; Soil D, 0.5 mol %, Day 7): 0.112 ± 0.008 μg g^−1 soil h^−1
N2O production (soils B-E; Soil D, 0.5 mol %, Day 14): 0.072 ± 0.009 μg g^−1 soil h^−1
N2O production (soils B-E; Soil D, 0.5 mol %, Day 21): 0.098 ± 0.011 μg g^−1 soil h^−1
N2O production (soils B-E; Soil D, 2.5 mol %, Day 1): 0.073 ± 0.037 μg g^−1 soil h^−1
N2O production (soils B-E; Soil D, 2.5 mol %, Day 3): 0.120 ± 0.005 μg g^−1 soil h^−1
N2O production (soils B-E; Soil D, 2.5 mol %, Day 5): 0.067 ± 0.006 μg g^−1 soil h^−1
N2O production (soils B-E; Soil D, 2.5 mol %, Day 7): 0.115 ± 0.012 μg g^−1 soil h^−1
N2O production (soils B-E; Soil D, 2.5 mol %, Day 14): 0.070 ± 0.006 μg g^−1 soil h^−1
N2O production (soils B-E; Soil D, 2.5 mol %, Day 21): 0.063 ± 0.003 μg g^−1 soil h^−1
N2O production (soils B-E; Soil D, 5 mol %, Day 1): 0.114 ± 0.015 μg g^−1 soil h^−1
N2O production (soils B-E; Soil D, 5 mol %, Day 3): 0.112 ± 0.006 μg g^−1 soil h^−1
N2O production (soils B-E; Soil D, 5 mol %, Day 5): 0.039 ± 0.021 μg g^−1 soil h^−1
N2O production (soils B-E; Soil D, 5 mol %, Day 7): 0.102 ± 0.014 μg g^−1 soil h^−1
N2O production (soils B-E; Soil D, 5 mol %, Day 14): 0.056 ± 0.004 μg g^−1 soil h^−1
N2O production (soils B-E; Soil D, 5 mol %, Day 21): 0.069 ± 0.007 μg g^−1 soil h^−1
N2O production (soils B-E; Soil E, 0.5 mol %, Day 1): 0.053 ± 0.002 μg g^−1 soil h^−1
N2O production (soils B-E; Soil E, 0.5 mol %, Day 3): 0.037 ± 0.006 μg g^−1 soil h^−1
N2O production (soils B-E; Soil E, 0.5 mol %, Day 5): 0.015 ± 0.008 μg g^−1 soil h^−1
N2O production (soils B-E; Soil E, 0.5 mol %, Day 7): 0.000 ± 0.000 μg g^−1 soil h^−1
N2O production (soils B-E; Soil E, 0.5 mol %, Day 14): 0.000 ± 0.000 μg g^−1 soil h^−1
N2O production (soils B-E; Soil E, 0.5 mol %, Day 21): 0.000 ± 0.000 μg g^−1 soil h^−1
N2O production (soils B-E; Soil E, 2.5 mol %, Day 1): 0.080 ± 0.009 μg g^−1 soil h^−1
N2O production (soils B-E; Soil E, 2.5 mol %, Day 3): 0.014 ± 0.014 μg g^−1 soil h^−1
N2O production (soils B-E; Soil E, 2.5 mol %, Day 5): 0.000 ± 0.000 μg g^−1 soil h^−1
N2O production (soils B-E; Soil E, 2.5 mol %, Day 7): 0.000 ± 0.000 μg g^−1 soil h^−1
N2O production (soils B-E; Soil E, 2.5 mol %, Day 14): 0.008 ± 0.008 μg g^−1 soil h^−1
N2O production (soils B-E; Soil E, 2.5 mol %, Day 21): 0.000 ± 0.000 μg g^−1 soil h^−1
N2O production (soils B-E; Soil E, 5 mol %, Day 1): 0.045 ± 0.011 μg g^−1 soil h^−1
N2O production (soils B-E; Soil E, 5 mol %, Day 3): 0.011 ± 0.011 μg g^−1 soil h^−1
N2O production (soils B-E; Soil E, 5 mol %, Day 5): 0.000 ± 0.000 μg g^−1 soil h^−1
N2O production (soils B-E; Soil E, 5 mol %, Day 7): 0.000 ± 0.000 μg g^−1 soil h^−1
N2O production (soils B-E; Soil E, 5 mol %, Day 14): 0.007 ± 0.007 μg g^−1 soil h^−1
N2O production (soils B-E; Soil E, 5 mol %, Day 21): 0.000 ± 0.000 μg g^−1 soil h^−1
N2O production rate (soils B-E; soil B, 0.5 mol % (lowest application rate), day 1): 0.32 ng g^−1 soil h^−1
N2O production rate relative to the uninhibited soil (soils B-E; soil B, 0.5 mol %, day 1): approximately 50%
N2O production rate relative to that in the absence of the inhibitor (soils B-E; soil B, 2.5 mol %): approximately 67%
N2O production rate relative to that in the absence of the inhibitor (soils B-E; soil B, 5 mol %): approximately 67%
N2O formation rate compared to the uninhibited soil (soils B-E; soil C, 0.5 mol % and 2.5 mol %, first two weeks (P>0.05)): did not show a significantly reduced N2O formation rate
N2O production rate (soils B-E; soil C, highest application rate (5 mol %), day 21): 0.095 ng g^−1 soil h^−1
N2O production rates compared to the uninhibited soil (soils B-E; soil D (P>0.05)): No significant difference
N2O production beyond day 5 (soils B-E; soil E, 5 mol %): no N2O production was detected
